In US12552835B2, “Composition comprising Regentide-012 or Regentide-013 for improving skin condition” (NINEBIOPHARM CO., LTD., priority 2020, dated 2026):
Where a SMILES comes first, the peptide text is derived from it. Bridges are numbered along the chain shown (N, C = ends).

What was measured:
Assay type in all cases: cell-based, human
CCD-986Sk [1] = assay: Cytotoxicity evaluation (CCK8 cell viability) in fibroblasts; conditions: 5 μM or 10 μM, 48 hours, FBS-free medium
Procedure: (§1) The cytotoxicities of Regentide-012 and Regentide-013 prepared in Example 1 above were evaluated. Specifically, cytotoxicities were measured in HaCaT cells, which are human epidermal keratinocytes, and CCD-986Sk, which is human fibroblasts. Keratinocytes were dispensed at 3×10^3 cells/well and fibroblasts were dispensed at 5×10^3 cells/well in a 96-well plate, and then cultured in cell culture conditions for 24 hours in a medium containing 10% FBS. After culturing, Regentide-012 and Regentide-013 were added to an FBS-free medium in an amount of 5 μM or 10 μM, and these were cultured for 48 hours. Thereafter, 10 μl per well of CCK8 reaction solution (Dojindo Molecular Technologies, Kumamoto, Japan) was treated and reacted for 4 hours, and then absorbance was measured at 450 nm. The average absorbance value for each sample group was obtained, and the cell viability was evaluated by comparing it with the absorbance values of cells that had not been treated with Regentide-012 and Regentide-013 as a control group.

HaCaT cells [2] = assay: Cytotoxicity evaluation (CCK8 cell viability) in epidermal keratinocytes; conditions: 5 μM or 10 μM, 48 hours, FBS-free medium
Procedure: as §1

HaCaT cells [3] = assay: Epidermal keratinocyte growth promoting efficacy (cell number); conditions: 0.5 μM, after 8 days
Procedure: In order to confirm the cell proliferation abilities of Regentide-012 and Regentide-013, HaCaT cells, which are epidermal keratinocytes, were dispensed at 1×10^4 cells/well in a 6-well plate, and then cultured for 6 hours in a medium containing 10% FBS. Thereafter, Regentide-012 and Regentide-013 were added at various concentrations (0, 0.1, 0.2, or 0.5 μM) and cultured for 8 days. The medium was replaced with a medium containing Regentide-012 and Regentide-013 in various concentrations every day, and the number of cells was measured at intervals of two days.

HaCaT cells [4] = assay: Wound recovery effect of epidermal keratinocytes (insert gap migration); conditions: 1 and 2.5 μM, FBS-free medium, 16 and 40 hours
Procedure: (§2) In order to confirm the wound recovery effects of Regentide-012 and Regentide-013, HaCaT cells, which are epidermal keratinocytes, were attached to a 6-well plate with an adhesive insert (Insert, Ibidi, Wisconsin, USA). The cells were dispensed at 6×10^4 cells/well in each well of the insert, and then cultured in cell culture conditions for 24 hours in a medium containing 2% FBS. Thereafter, the insert was removed and washed once using 1×DPBS. Regentide-012 and Regentide-013 were added to the medium at various concentrations (0, 1, and 2.5 μM) in an FBS-free medium, and cell images were photographed at 100 times using a microscope (Nikon Eclipse E100, Tokyo, Japan) after 16 and 40 hours.

CCD986Sk cells = assay: Fibroblast growth promoting efficacy (cell number); conditions: 0.5 μM, after 8 days
Procedure: In order to confirm the cell proliferation abilities of Regentide-012 and Regentide-013, CCD986Sk cells, which are fibroblasts, were dispensed at 1×10^4 cells/well in a 6-well plate, and then cultured for 6 hours in a medium containing 10% FBS. Thereafter, Regentide-012 and Regentide-013 were added at various concentrations (0, 0.1, 0.2, or 0.5 μM) and cultured for 8 days. The medium was replaced with a medium containing Regentide-012 and Regentide-013 in various concentrations every day, and the number of cells was measured at intervals of two days.

CCD-986Sk [5] = assay: Wound recovery effect of fibroblasts (insert gap migration); conditions: 1 and 2.5 μM, FBS-free medium, 16 and 40 hours
Procedure: as §2, with “CCD-986sk, which is dermal” for “HaCaT”, “was” for “which are epidermal keratinocytes, were”, “[…] was” for “Regentide-012 and Regentide-013 were”, “measured” for “photographed”

Row | Structure (SMILES) | cytotoxicity to fibroblasts (CCD-986Sk [1]) | cytotoxicity to epidermal keratinocytes (HaCaT cells [2]) | cell growth rate higher than the control group (HaCaT cells [3]) [%] | cell numbers and cell migration abilities of epidermal keratinocytes (HaCaT cells [4]) | cell growth rate higher than the control group (CCD986Sk cells) [%] | cell numbers and cell migration abilities of fibroblasts (CCD-986Sk [5])
1 | CC[C@H](C)[C@H](NC(=O)[C@H](CCC(N)=O)NC(=O)[C@H](CCC(=O)O)NC(=O)[C@@H](N)CCCCN)C(=O)NCC(=O)N[C@@H](CCCCN)C(=O)N[C@H]1CSSC[C@@H](C(=O)N[C@@H](CCCNC(=N)N)C(=O)N[C@@H](CCCNC(=N)N)C(=O)N[C@@H](CCCCN)C(=O)N[C@@H](CCCCN)C(=O)O)NC(=O)[C@H](Cc2c[nH]c3ccccc23)NC(=O)[C@H](CCCCN)NC(=O)[C@H](CCCNC(=N)N)NC(=O)CNC(=O)[C@H](CCCNC(=N)N)NC(=O)[C@H]([C@@H](C)O)NC(=O)[C@H](CO)NC1=O [Regentide-012, KEQIGKCSTRGRKWCRRKK] (H-KEQIGKCSTRGRKWCRRKK-OH; disulfide 7-15) | not toxic | not toxic | – | – | – | –
2 | CC[C@H](C)[C@H](NC(=O)[C@H](CCC(N)=O)NC(=O)[C@H](CCC(=O)O)NC(=O)[C@H](CCCCN)NC(C)=O)C(=O)NCC(=O)N[C@@H](CCCCN)C(=O)N[C@H]1CSSC[C@@H](C(=O)N[C@@H](CCCNC(=N)N)C(=O)N[C@@H](CCCNC(=N)N)C(=O)N[C@@H](CCCCN)C(=O)N[C@@H](CCCCN)C(N)=O)NC(=O)[C@H](Cc2c[nH]c3ccccc23)NC(=O)[C@H](CCCCN)NC(=O)[C@H](CCCNC(=N)N)NC(=O)CNC(=O)[C@H](CCCNC(=N)N)NC(=O)[C@H]([C@@H](C)O)NC(=O)[C@H](CO)NC1=O [Regentide-013, Ac-KEQIGKCSTRGRKWCRRKK-NH2] (Ac-KEQIGKCSTRGRKWCRRKK-NH2; disulfide 7-15) | not toxic | not toxic | 60.8 | increased the cell numbers and cell migration abilities | 43.9 | increased the cell numbers and cell migration abilities
